Consider 4 molecules from patent US20060134670A1, “Enabling tools to identify ligands for hormone nuclear receptors” (priority 2004, published 2006).

For one data set, the target named is T1, LXRα (NR1H3) (Homo sapiens, UniProt Q13133).
T1 construct: expressed in transfected cells; host or cells: NIH-3T3
T1 sequence (Q13133 1-447): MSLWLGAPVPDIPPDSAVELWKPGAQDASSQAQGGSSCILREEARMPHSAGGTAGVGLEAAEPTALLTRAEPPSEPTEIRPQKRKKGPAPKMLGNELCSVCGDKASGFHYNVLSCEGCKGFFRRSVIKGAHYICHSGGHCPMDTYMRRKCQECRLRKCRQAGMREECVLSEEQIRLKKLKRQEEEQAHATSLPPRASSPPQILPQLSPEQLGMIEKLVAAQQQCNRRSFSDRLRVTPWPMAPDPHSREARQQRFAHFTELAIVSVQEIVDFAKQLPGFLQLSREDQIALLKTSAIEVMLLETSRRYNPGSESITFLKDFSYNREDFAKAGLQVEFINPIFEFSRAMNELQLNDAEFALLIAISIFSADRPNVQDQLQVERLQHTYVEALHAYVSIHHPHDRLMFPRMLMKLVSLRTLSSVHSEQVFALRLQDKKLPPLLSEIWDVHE
In words: R-SAT single receptor format, LXRα. It counts as cell-based. To be noted: NIH-3T3 cells transfected with LXRα. From the text:
(§1) Curves were generated using XLFit software ([…]).

The target in the next data set is T2, LXRβ (NR1H2) (Homo sapiens, UniProt P55055).
T2 construct: expressed in transfected cells; host or cells: NIH-3T3
T2 sequence (P55055 1-460): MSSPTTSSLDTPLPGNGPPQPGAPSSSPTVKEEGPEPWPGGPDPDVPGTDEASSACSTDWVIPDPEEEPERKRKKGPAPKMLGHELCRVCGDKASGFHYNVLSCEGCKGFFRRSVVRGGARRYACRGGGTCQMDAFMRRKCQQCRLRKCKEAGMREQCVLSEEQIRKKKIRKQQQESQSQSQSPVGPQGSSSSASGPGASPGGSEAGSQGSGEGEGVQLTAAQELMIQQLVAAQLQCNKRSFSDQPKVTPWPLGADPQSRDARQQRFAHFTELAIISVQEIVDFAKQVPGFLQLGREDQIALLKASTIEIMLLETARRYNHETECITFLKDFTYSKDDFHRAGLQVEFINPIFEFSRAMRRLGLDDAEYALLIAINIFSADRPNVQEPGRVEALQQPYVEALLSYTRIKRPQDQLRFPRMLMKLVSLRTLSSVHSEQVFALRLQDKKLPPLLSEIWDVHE
In words: R-SAT single receptor format, LXRβ. The note with it: NIH-3T3 cells transfected with LXRβ. In kind it is cell-based.
Excerpt: as §1

The target in data set [1] is T3, CARα and RXR nuclear receptors (heterodimer) (Homo sapiens, UniProt Q14994).
T3 construct: expressed in transfected cells
T3 sequence (Q14994 1-348 isoform Q14994-2): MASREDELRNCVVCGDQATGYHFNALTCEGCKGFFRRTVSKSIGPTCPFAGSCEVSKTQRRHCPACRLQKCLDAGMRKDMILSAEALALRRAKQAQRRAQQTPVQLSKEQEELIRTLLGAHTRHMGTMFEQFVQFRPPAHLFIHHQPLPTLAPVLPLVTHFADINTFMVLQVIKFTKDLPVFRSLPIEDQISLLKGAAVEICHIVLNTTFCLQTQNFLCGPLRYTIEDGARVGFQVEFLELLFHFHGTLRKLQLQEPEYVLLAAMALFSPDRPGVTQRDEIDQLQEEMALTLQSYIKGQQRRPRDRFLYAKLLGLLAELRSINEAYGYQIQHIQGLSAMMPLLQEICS
T3 sequence (P48443 1-463 partner): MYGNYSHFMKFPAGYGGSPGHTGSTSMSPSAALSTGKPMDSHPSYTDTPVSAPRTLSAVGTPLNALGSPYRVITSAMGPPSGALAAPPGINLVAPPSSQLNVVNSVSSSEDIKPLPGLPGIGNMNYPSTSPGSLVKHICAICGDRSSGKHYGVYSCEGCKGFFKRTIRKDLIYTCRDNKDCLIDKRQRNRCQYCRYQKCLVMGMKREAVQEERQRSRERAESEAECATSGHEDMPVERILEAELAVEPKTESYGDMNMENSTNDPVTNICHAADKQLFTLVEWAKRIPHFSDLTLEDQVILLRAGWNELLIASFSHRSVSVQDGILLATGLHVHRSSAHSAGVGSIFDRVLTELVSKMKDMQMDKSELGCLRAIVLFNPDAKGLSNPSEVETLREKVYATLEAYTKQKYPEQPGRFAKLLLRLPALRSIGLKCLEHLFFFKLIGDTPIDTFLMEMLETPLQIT
In words: R-SAT inverse agonism, CARα/RXR. In kind it is cell-based. To be noted: cells transfected with CARα and RXR, β-galactosidase activity, FIG. 4A.
Excerpt: as §1

The next data set deals with T4, PXR/RXR heterodimer (Homo sapiens, UniProt O75469).
T4 sequence (O75469 1-434): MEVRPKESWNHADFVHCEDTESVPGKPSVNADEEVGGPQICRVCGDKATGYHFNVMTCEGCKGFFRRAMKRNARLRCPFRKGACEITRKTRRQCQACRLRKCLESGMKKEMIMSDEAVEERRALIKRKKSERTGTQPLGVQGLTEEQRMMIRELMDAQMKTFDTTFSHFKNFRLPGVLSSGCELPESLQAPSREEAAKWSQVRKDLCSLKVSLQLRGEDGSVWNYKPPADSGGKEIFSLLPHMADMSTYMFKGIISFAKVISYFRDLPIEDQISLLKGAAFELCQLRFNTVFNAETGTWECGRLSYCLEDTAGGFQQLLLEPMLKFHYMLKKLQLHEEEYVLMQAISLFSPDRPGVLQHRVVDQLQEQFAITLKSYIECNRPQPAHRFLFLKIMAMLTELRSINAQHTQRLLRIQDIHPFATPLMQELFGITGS
T4 sequence (P48443 1-463 partner): T3 sequence (P48443 1-463 partner)
The note with it: 5 days.

The target of another data set is T5, PPARδ (NR1C2) (Homo sapiens, UniProt Q03181).
T5 construct: expressed in transfected cells; host or cells: NIH-3T3
T5 sequence (Q03181 1-441): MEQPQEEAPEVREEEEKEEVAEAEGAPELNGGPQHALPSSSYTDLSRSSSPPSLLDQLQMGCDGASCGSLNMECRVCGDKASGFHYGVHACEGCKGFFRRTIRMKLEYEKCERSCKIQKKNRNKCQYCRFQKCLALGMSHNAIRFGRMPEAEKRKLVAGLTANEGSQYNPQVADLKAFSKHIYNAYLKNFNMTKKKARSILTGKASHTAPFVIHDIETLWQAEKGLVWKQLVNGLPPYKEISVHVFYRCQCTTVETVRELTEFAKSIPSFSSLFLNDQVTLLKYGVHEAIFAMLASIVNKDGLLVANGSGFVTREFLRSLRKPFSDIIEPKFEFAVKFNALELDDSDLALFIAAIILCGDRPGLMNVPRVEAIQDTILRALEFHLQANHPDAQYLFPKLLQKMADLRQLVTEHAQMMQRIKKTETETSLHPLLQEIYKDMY
In words: R-SAT single receptor format, PPARδ. In kind it is cell-based. The note with it: NIH-3T3 cells transfected with PPARδ.
Excerpt: as §1

Experimental for PXR/RXR heterodimer: On day one, cells were trypsinized, centrifuged and plated at 8,000 cells/well in a 96-well plate in 100 μl/well of Dubelcco's Modified Eagle's Medium (DMEM), 10% calf serum. On day two, cells were transfected using the transfection reagent Superfect® (Qiagen, Inc.) as recommended by the manufacturer. Various doses of the nuclear receptor plasmid DNA were transfected. DNA mixtures included 0.1 to 10 ng/well of receptors DNA, 20 to 30 ng/well of β-galactosidase plasmid DNA (pSV β-galactosidase, Promega) and 15 μl of Superfect®. On day three, the media was replaced by DMEM with 2% Cyto-SF3 (Kemp Biotechnologies, Inc.) containing variable amounts of the compounds being tested. […] All data were obtained by measuring the change in absorbance at 420 nm using an automated plate reader. EC50 values were calculated using the equation r=A+B(x/(c+c)), where A=minimum response, B=maximum response minus maximum response, c=EC50, r=response, and x=concentration of ligand. Curves were generated using XLFit software (Microsoft).
The coactivators GRIP1 (Glucocorticoid Receptor Interacting Protein 1) (GenBank U39060) and SRC-1 (Steroid Receptor Coactivator 1) (GenBank U90661) were used in this assay. In summary, plasmid DNA encoding the coactivator(s) were transfected along with the aforementioned transfection mixture (containing the PXR, RXR, and β-Gal plasmid DNAs).

With `CC(C)CC[C@@H](O)[C@@H](C)[C@H]1CC[C@H]2[C@@H]3CC=C4C[C@@H](O)CC[C@]4(C)[C@H]3CC[C@]12C` [22(R)OH-Cholesterol], the EC50 on LXRα (NR1H3) and on LXRβ (NR1H2) was 3000 to 5000 nM throughout.

On to `C[C@]12CC[C@@H](O)C[C@@H]1CC[C@@H]1[C@@H]2CC[C@]2(C)C=CC[C@@H]12` [Androstenol], for which the inverse agonist activity result in data set [1] is reported as “inverse agonist activity”.

In the case of `CO[C@H]1/C=C/O[C@@]2(C)Oc3c(C)c(O)c4c(O)c(c(/C=N/N5CCN(C)CC5)c(O)c4c3C2=O)NC(=O)/C(C)=C\C=C\[C@H](C)[C@H](O)[C@@H](C)[C@@H](O)[C@@H](C)[C@H](OC(C)=O)[C@@H]1C` [rifampicin], the “efficacy of pharmacological response” value at PXR/RXR heterodimer is given as 5-10%.

As for `CCCCC[C@H](O)/C=C/[C@@H]1[C@H]2C/C(=C/CCCC(=O)O)C[C@H]2C[C@H]1O` [carbaprostacyclin], the EC50 at PPARδ (NR1C2) lay within 200 to 500 nM.
